The record followed here is patent US20230227484A1, “PYRIMIDINE COMPOUND AS AXL INHIBITOR” (NANJING CHIA TAI TIANQING PHARMACEUTICAL CO., LTD., priority 2020, published 2023).

For the assay, the target named is T1, AXL kinase (Homo sapiens, UniProt P30530).
T1 construct: purchased Carna 08-107
T1 sequence (P30530 473-894 limits assumed): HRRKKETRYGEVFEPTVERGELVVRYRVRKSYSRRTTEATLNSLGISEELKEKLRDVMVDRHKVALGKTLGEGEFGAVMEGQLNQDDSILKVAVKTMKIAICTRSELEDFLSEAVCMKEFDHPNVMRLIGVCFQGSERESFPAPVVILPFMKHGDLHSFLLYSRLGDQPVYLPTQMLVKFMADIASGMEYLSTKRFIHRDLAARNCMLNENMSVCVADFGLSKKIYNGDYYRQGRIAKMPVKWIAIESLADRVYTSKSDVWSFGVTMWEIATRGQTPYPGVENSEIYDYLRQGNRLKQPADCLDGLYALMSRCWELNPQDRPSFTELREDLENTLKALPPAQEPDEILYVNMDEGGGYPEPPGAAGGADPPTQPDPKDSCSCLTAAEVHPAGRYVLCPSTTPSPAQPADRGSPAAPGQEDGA
As to the kind of experiment: Inhibitory activity of compound against AXL kinase (HTRF KinEASE). It is filed as biochemical. To be noted: AXL enzyme (Carna, 08-107), ATP 15 μM; "<" means below detection limit of the test. The procedure:
a) AXL enzyme (Carna, 08-107) configuration and addition: a 1×enzyme buffer (200 μL of Enzymatic buffer kinase 5×, 10 μL of 500 mM MgCl2, 10 μL of 100 mM DTT and 6.26 μL of 2500 nM SEB are added with […] of H2O, and prepared into 1 ml of 1× enzyme buffer) is used. AXL enzyme is diluted from 33.33 ng/uL to 0.027 ng/μL (1.67×, final conc.=0.016 ng/uL), a BioTek (MultiFlo FX) automatic liquid dispenser is used, and 6 μL of enzyme solution having a 1.67-fold final concentration is added respectively to compound wells and positive control wells; and 6 μL of 1×Enzymatic buffer is added to negative control wells.
b) Compound preparation and addition: the compounds and positive drugs prepared in the examples are diluted from 10 mM to 100 μM by DMSO, and titrated with a compound titrator (Tecan, D300e). The titrated solution is automatically sprayed by the titrator to each well to reach a required concentration, wherein the first concentration is 1 μM, and after ½ log dilution, a total of 8 concentrations are obtained. The resulting mixture is centrifuged at 2500 rpm for 30 s and incubated at room temperature for 15 min.
c) Preparation and addition of ATP and substrate: ATP (Sigma, A7699) is diluted with 1× enzyme buffer from 10 mM to 75 μM (5×), and the final concentration is 15 μM; the substrate TK Substrate 3-biotin (Cisbio, 61TK0BLC) is diluted with 1× enzyme buffer from 500 μM to 5 μM (5×), andthe final concentration is […]; ATP and the substrate are mixed in equal volume to obtain a mixed solution; the mixed solution is added to each well at 4 μL by using a BioTek automatic dispenser; centrifuged at 2500 rpm for 30 s, and reacted at 25° C. for 45 min.
d) Pirparation and addition of detection reagent: Streptavidin-XL665 (Cisbio, 610SAXLG) is diluted with HTRF KinEASE detection buffer (cisbio) from 16.67 μM to 250 nM (4×), and the final concentration is 62.5 nM; TK Antibody-Cryptate (Cisbio) is diluted with HTRF KinEASE detection buffer (cisbio) from 100× to 5×, and the final concentration is 1×; XL665 and Antibody are mixed in equal volume; the mixed solution is added to each well at 10 μL by using the BioTek automatic dispenser, centrifuged at 2500 rpm for 30 s, and reacted at 25° C. for 1 h. After the reaction is completed, the resulting product is detected by a multi-function plate reader HTR1p
GraphPad Prism 5 software log (inhibitor) vs. response-Variable slope is used to fit a dose-response curve to obtain the IC50 value of the compound to the inhibition of AXL kinase.
The calculation formula of the inhibition rate is as follows: […]

Molecules are shown by their SMILES. Some results are limits rather than exact numbers.

Regarding `CP(C)(=O)c1cc(Br)ccc1Nc1nc(Nc2ccc3c(c2)CC[C@@H](N2CCCC2)CC3)ncc1Cl` [Example 110, (S)-(5-bromo 2-((5-chloro-2-((7-(pyrrolidin-1-yl)-6,7,8,9-tetrahydro-5H-benzo[7]annulen-2-yl)amino)pyrimidin-4-yl)amino)phenyl)dimethyl phosphine oxide], it took 1.7 nM to reach half-maximal inhibition (IC50).
As for `CN(C)S(=O)(=O)c1ccc(Nc2nc(Nc3ccc4c(c3)CC[C@@H](N3CCCC3)CC4)ncc2Cl)cc1` [Example 3, (S)-4-((5-chloro-2-((7-(pyrrolidin-1-yl)-6,7,8,9-tetrahydro-5H-benzo[7]annulen-2-yl)amino)pyrimidin-4-yl)amino)-N,N-dimethyl benzenesulfonamide], the figure is 23.6 nM; as for `CP(C)(=O)c1cc(C#N)ccc1Nc1nc(Nc2ccc3c(c2)CC[C@@H](N2CCCC2)CC3)ncc1Cl` [Example 54, (S)-4-((5-chloro-2-((7-(pyrrolidin-1-yl)-6,7,8,9-tetrahydro-5H-benzo[7]annulen-2-yl)amino)pyrimidin-4-yl)amino)-3-(dimethylphosphoryl)benzonitrile], 3.1 nM; as for `CNC(=O)c1cnc(OC)cc1Nc1nc(Nc2ccc3c(c2)CC[C@@H](N2CCCC2)CC3)ncc1Cl` [Example 43, (S)-4-((5-chloro-2-((7-(pyrrolidin-1-yl)-6,7,8,9-tetrahydro-5H-benzo[7]annulen-2-yl)amino)pyrimidin-4-yl)amino)-6-methoxyl-N-methylnicotinamide], 9.87 nM.
For `CC(C)Oc1ccccc1Nc1nc(Nc2ccc3c(c2)CC[C@@H](N2CCCC2)CC3)ncc1Cl` [Example 8, (S)-5-chloro-4-(2-isopropoxyl)anilino-2-(7-(pyrrolidin-1-yl)-6,7,8,9-tetrahydro-5H-benzo[7]annulen-2-yl)pyrimidine] the value was 8.28 nM; for `CC(C)Oc1ccc(Nc2nc(Nc3ccc4c(c3)CC[C@@H](N3CCCC3)CC4)ncc2Cl)c(P(C)(C)=O)c1` [Example 114], 2.03 nM; for `O=S(=O)(c1cccc(Nc2nc(Nc3ccc4c(c3)CC[C@@H](N3CCCC3)CC4)ncc2Cl)c1)N1CCCC1` [Example 5, (S)-5-chloro-N^2-(7-(pyrrolidin-1-yl)-6,7,8,9-tetrahydro-5H-benzo[7]annulen-2-yl)-N^4-(3-(pyrrolidin-1-ylsulfo)phenyl)pyrimidine-2,4-diamine], 20.7 nM.
As for `COc1ccc(Nc2nc(Nc3ccc4c(c3)CC[C@@H](N3CCCC3)CC4)ncc2Cl)c(P(C)(C)=O)c1` [Example 55, (S)-(2-((5-chloro-2-((7-(pyrrolidin-1-yl)-6,7,8,9-tetrahydro-5H-benzo[7]annulen-2-yl)amino)pyrimidin-4-yl)amino)-5-methoxyphenyl)dimethyl phosphine oxide], the figure is 3.14 nM; as for `CNC(=O)c1cccnc1Nc1nc(Nc2ccc3c(c2)CC[C@@H](N2CCCC2)CC3)ncc1Cl` [Example 21, (S)-2-((5-chloro-2-((7-(pyrrolidin-1-yl)-6,7,8,9-tetrahydro-5H-benzo[7]annulen-2-yl)amino)pyrimidin-4-yl)amino)-N-methylnicotinamide], 6.53 nM; as for `O=S(=O)(c1ccccc1Nc1nc(Nc2ccc3c(c2)CC[C@@H](N2CCCC2)CC3)ncc1Cl)N1CCCC1` [Example 4, (S)-5-chloro-N^2-(7-(pyrrolidin-1-yl)-6,7,8,9-tetrahydro-5H-benzo[7]annulen-2-yl)-N^4-(2-(pyrrolidin-1-ylsulfo)phenyl)pyrimidine-2,4-diamine], under 0.11 nM.
Regarding `[2H]C([2H])([2H])P(=O)(c1ccccc1Nc1nc(Nc2ccc3c(c2)CC[C@@H](N2CCCC2)CC3)ncc1Cl)C([2H])([2H])[2H]` [Example 56, (S)-(2-((5-chloro-2-((7-(pyrrolidin-1-yl)-6,7,8,9-tetrahydro-5H-benzo[7]annulen-2-yl)amino)pyrimidin-4-yl)amino)phenyl)bis(methyl-d3) phosphine oxide], it took 2.04 nM to reach half-maximal inhibition (IC50).
